# Laboratory results as given in patent US11001808B2, “Immortalization of epithelial cells and methods of use” (Georgetown University, priority 2010, dated 2021).
# “Also recorded” adds a separate entry of the source.
# Legend:
# human prostate cells = assay: Proliferation in serum-containing F medium with Rho-Rock-Myosin pathway inhibitors, Crystal Violet staining (FIG. 23); type: cell-based; conditions: about 5000 cells in 6-well plates, 8 days, Y-27632 5 μM, HA-1100 20 μM, GSK429286 0.1 μM, Fasudil 30 μM, C3 transferase 2 μg/ml, Blebbistatin 5 μM
# Method: FIG. 23 depicts that inhibition of the Rho-Rock-Myosin pathway prevents cells from terminally differentiating, allowing the cells to proliferate in serum-containing medium. Normally, serum-containing medium induces terminal differentiation of primary epithelial cells and, in turn, causes senescence in culture. Approximately 5000 human prostate cells were plated in 6-well plates in F medium with addition of Rock inhibitors Y-27632 (5 μM), HA-1100 (20 μM), GSK429286 (0.1 μM), Fasudil (30 μM), a Rho inhibitor (C3 transferase, 2 μg/ml), or a Mysin inihibitor (-Blebbistatin, 5 μM). Eight days later, cells were fixed and stained with 0.05% Crystal Violet.
# As used herein, inhibiting ROCK can mean to reduce the activity, function or expression of at least one of ROCK1 or ROCK2. […] In general, ROCK phosphorylates LIM kinase and myosin light chain (MLC) phosphatase after being activated through binding of GTP-bound Rho. One embodiment of the present invention thus involves blocking the upstream pathway of ROCK1 and/or ROCK2, for example GTP-bound Rho, such that ROCK1 and/or ROCK2 is not activated or its activity is reduced over untreated cells. Other upstream effectors include but are not limited to, integrins, growth factor receptors, including but not limited to, TGF-beta and EGFR, cadherins, G protein coupled receptors and the like. Another embodiment of the present invention thus involves blocking the activity, function or expression of downstream effector molecules of activated ROCK1 and/or ROCK2 such that ROCK1 and/or ROCK2 can not propagate any signal or can only propagate a reduced signal over untreated cells. Downstream effectors include but are not limited to, Myosin phosphatase-targeting protein (MYPT), vimentin, LIMK, Myosin light chain kinase, NHE1, cofilin, Myosin II and the like. […] Upstream or downstream inhibition of ROCK, in place of direct ROCK inhibition and in conjunction with the other culture conditions described and required herein, may or may not generate conditionally immortalized NKE cells.
# [1] = system: HPV-11-containing tumor cells from the patient; assay: Cell viability curves (CellTiter-Glo Luminescent Cell Viability Assay), patient's cultured tumor cells; type: cell-based, human; conditions: for sensitivity of tumor cells compared with normal lung cells: tumor versus normal lung cells of the same patient, 24 hours
# Method: (§1) Normal and tumor cells were treated with Cidofovir, Vorinostat or DHA at indicated concentration for 24 hours. Cell viabilities were measured using CellTiter-Glo® Luminescent Cell Viability Assay (Promega)
# (§2) There is no data in the literature, however, analyzing the effect of these inhibitors on cells containing low-risk HPVs, because there are no cell lines established that contain HPV-6 or HPV-11. […] More importantly, this cell line was used to evaluate the sensitivity to the above inhibitors and to compare it to the sensitivity of normal lung cells isolated from the same patient (FIG. 17).
# (§3) Cidovovir is the most common drug used for treating RRP.
# [2] = system: recurrent papillomatosis of the larynx; conditions: patient history: interferon 1996-2010, Methotrexate 2001-03, intralesional Cidofovir 2007-2010, intralesional Avastin 2010; cited from earlier work
# [3] = system: cervical cancer cells that express the high-risk HPVs; conditions: previous studies; cited from earlier work
# airway epithelial cells = conditions: Moore et al., 2004; cited from earlier work
# normal lung cells = assay: Cell viability curves (CellTiter-Glo Luminescent Cell Viability Assay), normal cells of the same patient; conditions: treated 24 hours, cell type of the LD50 not stated, taken as normal lung cells from context
# Method: as §1, §2, §3
# [4] = system: recurrent respiratory papillomatosis; assay: Vorinostat therapy of the patient, follow-up by CT scan; type: in vivo, human; conditions: one patient, 400 mg/daily, 4 week cycle (3 weeks on, 1 week off)
# Source text: A patient with recurrent papillomatosis of the larynx for 16 years was chosen for this study. The disease progressively involved not only the larynx, but had spread to the upper airway (trachea and bronchi) and recently into the lung parenchyma. The patient had had more than 350 surgeries. Besides surgeries, multiple treatments had failed, including interferon treatment (1996-2010), Methotrexate (2001-03), intralesional Cidofovir (2007-2010), and intralesional Avastin (2010). […] By October 2010, the size each lung lesion examined was increasing. During the last surgical intervention, a wedge resection of the right upper lobe was performed to remove metastatic tumor. […] Koilocytotic changes in such tumors are an indication that the tumor is producing infectious HPV. However, at the time of intervention, the type of HPV involved in this tumor had not been identified. Since the tumor had not responded to several different treatment modalities, it was also unclear how the patient would be treated following surgery.
# Based on the in vitro sensitivity data, the patient was placed on Vorinostat therapy in January of 2011. The therapy consisted 4 week cycle (3 weeks on, 1 week off) of Vorinostat at 400 mg/daily. […] Thus, the use of the cell culture methods of the present invention were critical in determining a response profile of the abnormal cells, which enabled the identification of at least two chemotherapeutic agents that might be useful for treating this patient's tumors. Using the cell culture methods of the present invention, the response profile, including the genetic analysis and the therapeutic index, was generated within one week of biopsy.
# [5] = system: human primary mammary cells; assay: In vitro growth curves under various growth conditions (FIG. 2B); type: cell-based
# Method: (§4) FIGS. 2A-2B depict in vitro growth curves of human primary prostate cells and human primary mammary cells under various growth conditions. (A) PrEGM is a synthetic commercial prostate epithelial cell growth medium; (B) MEGM is a synthetic commercial mammary epithelial cell medium; Feeders are J2 mouse fibroblasts that have been irradiated or treated with mitomycin C; ROCK inhibitor is Y27632 at a concentration of 10 μM that was applied to the cells at initial plating and thereafter. The y-axis is population doublings and the x-axis is number of days. Media was changed every 3 days for all groups.
# (§5) Primary HMECs and HPECs were grown under the four different conditions noted in FIG. 2. […] Feeders were the J2 mouse fibroblasts that have been gamma irradiated. The ROCK inhibitor was Y27632 at a concentration of 10 μM that was applied to the cells at initial plating and thereafter. The y-axis is population doublings and the x-axis is number of days. Media was changed every 2-3 days for all groups.
# (§6) Cells grown in the presence of the feeder cells in F medium without ROCK inhibitor had about the same growth rate, i.e., the slope of the lines was about the same, but the cells grown in the presence of feeder cells eventually stopped growing.
# [6] = system: human primary prostate cells; assay: In vitro growth curves under various growth conditions (FIG. 2A); type: cell-based
# Method: as §4, §5, §6
# [7] = F medium, irradiated J2 feeders, 10 μM from initial plating
compound,measurement,setting,value
CC1=C(C(=O)Nc2cc3cn[nH]c3cc2F)C(c2ccc(C(F)(F)F)cc2)CC(=O)N1 (stereo not shown) [GSK429286],suppression of serum-induced differentiation / proliferation in serum-containing medium,human prostate cells,able to suppress cell differentiation by serum
Nc1ccn(C[C@@H](CO)OCP(=O)(O)O)c(=O)n1 [Cidofovir],effect on cell viability in vitro,"[1]; very high concentrations (50-200 μM), 24 hours (FIG. 17A)",completely ineffective
same,outcome of earlier treatment,[2],failed
C[C@H]1[C@H](OC(=O)CCC(=O)O)O[C@@H]2O[C@@]3(C)CC[C@H]4[C@H](C)CC[C@@H]1[C@@]24OO3 [artesunate],killing of cervical cancer cells,[3],able to efficiently kill
O=S(=O)(c1cccc2cnccc12)N1CCCNCC1 [Fasudil],suppression of serum-induced differentiation / proliferation in serum-containing medium,human prostate cells,able to suppress cell differentiation by serum
same,effect of inhibition on airway epithelial cells,airway epithelial cells,"induces membrane ruffling, loss of actin stress fibers and apoptosis"
O=C(CCCCCCC(=O)Nc1ccccc1)NO [SAHA],LD50,normal lung cells,approximately 200 μM
same,sensitivity of tumor cells compared with normal lung cells,[1],approximately 100 fold
same,lesions in more recent CT scan,[4],all lesions had stabilized
same,lesions in subsequent CT scan,[4],"no new lesions were identified, smaller lesions were shrinking, and some larger lesions were also decreasing in size"
same,side effects,[4],no major side effects had been observed
CN(Cc1cnc2nc(N)nc(N)c2n1)c1ccc(C(=O)N[C@@H](CCC(=O)O)C(=O)O)cc1 [Methotrexate],outcome of earlier treatment,[2],failed
C3 transferase,suppression of serum-induced differentiation / proliferation in serum-containing medium,human prostate cells,able to suppress cell differentiation by serum; also recorded: allow the cells to bypass differentiation and allow proliferation in vitro
C[C@@H](N)[C@H]1CC[C@H](C(=O)Nc2ccncc2)CC1 [Y-27632],suppression of serum-induced differentiation / proliferation in serum-containing medium,human prostate cells,able to suppress cell differentiation by serum
same,growth (population doublings) with feeder cells in F medium plus ROCK inhibitor,[5]; [7],have continued to grow
same,growth (population doublings) on addition of ROCK inhibitor to synthetic medium,"[5]; MEGM synthetic serum-free medium, 10 μM, no feeders",did not affect growth
same,effect of inhibition on airway epithelial cells,airway epithelial cells,"induces membrane ruffling, loss of actin stress fibers and apoptosis"
same,growth (population doublings) with feeder cells in F medium plus ROCK inhibitor,[6]; [7],have continued to grow
same,growth (population doublings) on addition of ROCK inhibitor to synthetic medium,"[6]; PrEGM synthetic serum-free medium, 10 μM, no feeders",did not affect growth
"Avastin: intralesional Avastin, earlier treatment of the patient",outcome of earlier treatment,[2],failed
C[C@H]1[C@@H](O)O[C@@H]2O[C@@]3(C)CC[C@H]4[C@H](C)CC[C@@H]1[C@@]24OO3 [DHA],sensitivity of tumor cells compared with normal lung cells,[1],approximately 100 fold
same,killing of cervical cancer cells,[3],able to efficiently kill
O=S(=O)(c1cccc2c(O)nccc12)N1CCCNCC1 [HA-1100],suppression of serum-induced differentiation / proliferation in serum-containing medium,human prostate cells,able to suppress cell differentiation by serum
Cc1ccc2c(c1)C(=O)C1(O)CCN(c3ccccc3)C1=N2 (stereo not shown) [Blebbistatin],suppression of serum-induced differentiation / proliferation in serum-containing medium,human prostate cells,able to suppress cell differentiation by serum
same,suppression of serum-induced differentiation / proliferation in serum-containing medium,human prostate cells; listed as blebbistatin,allow the cells to bypass differentiation and allow proliferation in vitro
